Assay results from patent publication US12661410B2, “Compounds for targeted degradation of RET” (C4 Therapeutics, Inc., priority 2020, dated 2026).
Substitutions are numbered along the chain they refer to. Where two headings read alike, the source gives them in different places.

Tests used:
RET(KD: 658-1114 G810R) = target: T1, RET(KD: 658-1114 G810R) (Homo sapiens, UniProt P07949, G810R); assay: HiBiT-Degradation, RET G810R degradation assay (Nano-Glo HiBiT Lytic), 293T.165 cells; type: cell-based; settings: for Emax / DC50: 6.0 hours
T1 construct: 658-1114; expressed in transfected cells; host or cells: 293T.165 (293T cells, generated in-house)
T1 sequence (P07949 658-1114 G810R): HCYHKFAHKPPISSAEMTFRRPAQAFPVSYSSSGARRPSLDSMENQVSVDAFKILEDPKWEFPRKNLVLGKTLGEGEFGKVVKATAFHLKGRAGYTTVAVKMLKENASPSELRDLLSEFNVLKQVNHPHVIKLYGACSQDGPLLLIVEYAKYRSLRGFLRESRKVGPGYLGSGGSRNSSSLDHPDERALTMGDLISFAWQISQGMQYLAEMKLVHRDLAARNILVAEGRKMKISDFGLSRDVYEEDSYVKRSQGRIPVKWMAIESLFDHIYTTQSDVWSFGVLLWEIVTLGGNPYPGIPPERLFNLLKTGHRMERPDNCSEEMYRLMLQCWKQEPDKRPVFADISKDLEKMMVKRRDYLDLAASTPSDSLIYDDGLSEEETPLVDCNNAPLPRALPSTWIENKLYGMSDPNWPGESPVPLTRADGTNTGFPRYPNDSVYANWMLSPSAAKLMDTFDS
Summary of the method: (§1)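 HEK293T lines expressing HiBiT-tagged RET kinase domain, wild-type (293T.144) or G810R (293T.165), treated 6 h in duplicate, 11-point half-log series from 10 μM top. Lytic HiBiT luminescence read; DC50 and Emax (% protein remaining) from dose-response curves.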

RET (658-1114) = target: T2, RET (658-1114) (Homo sapiens, UniProt P07949); assay: HiBiT-Degradation, RET wild-type degradation assay (Nano-Glo HiBiT Lytic), 293T.144 cells; type: cell-based; settings: for DC50 / Emax: 6.0 hours
T2 construct: 658-1114; expressed in transfected cells; host or cells: 293T.144 (293T cells, generated in-house)
T2 sequence (P07949 658-1114): T1 sequence (P07949 658-1114 G810R) with R153G
Summary of the method: as §1

[1] = % remaining protein, read-out: 293T.165 RET(KD: 658-1114 G810R) 6.0 hours (Emax)
[2] = half-maximal degradation concentration, read-out: 293T.165 RET(KD: 658-1114 G810R) 6.0 hours (DC50)
[3] = HiBiT-Degradation, read-out: 293T.165 RET(KD: 658-1114 G810R) 6.0 hours (DC50)
[4] = HiBiT-Degradation, read-out: 293T.144 RET (658-1114) 6.0 hours (DC50)
[5] = HiBiT-Degradation, read-out: 293T.144 RET (658-1114) 6.0 hours (Emax)
[6] = % remaining protein, read-out: 293T.144 RET (658-1114) 6.0 hours (Emax)
[7] = half-maximal degradation concentration, read-out: 293T.144 RET (658-1114) 6.0 hours (DC50)

Emax (RET(KD: 658-1114 G810R); [1]) [%] | DC50 (RET(KD: 658-1114 G810R); [2]) [nM] | 293T.165 RET(KD: 658-1114 G810R) 6.0 hours (Emax) (RET(KD: 658-1114 G810R); HiBiT-Degradation) | 293T.165 RET(KD: 658-1114 G810R) 6.0 hours (IP) [nM] (RET(KD: 658-1114 G810R); HiBiT-Degradation) | DC50 (RET(KD: 658-1114 G810R); [3]) [nM] | 293T.144 RET (658-1114) 6.0 hours (IP) [nM] (RET (658-1114); HiBiT-Degradation) | DC50 (RET (658-1114); [4]) [nM] | Emax (RET (658-1114); [5]) [%] | 293T.165 RET(KD: 658-1114 G810R) 6.0 hours (IP) [nM] (RET(KD: 658-1114 G810R)) | 293T.144 RET (658-1114) 6.0 hours (IP) [nM] (RET (658-1114)) | Emax (RET (658-1114); [6]) [%] | DC50 (RET (658-1114); [7]) [nM] | SMILES | HiBiT-Degradation 293T.165 RET(KD: 658-1114 G810R) 6.0 hours (IP) [nM] (RET(KD: 658-1114 G810R); RET G810R) | DC50 (RET(KD: 658-1114 G810R); RET G810R, read-out: HiBiT-Degradation 293T.165 RET(KD: 658-1114 G810R) 6.0 hours (DC50)) [nM] | Emax (RET(KD: 658-1114 G810R); RET G810R, read-out: HiBiT-Degradation 293T.165 RET(KD: 658-1114 G810R) 6.0 hours (Emax)) [%] | HiBiT-Degradation 293T.144 RET (658-1114) 6.0 hours (IP) [nM] (RET (658-1114); RET wild-type) | DC50 (RET (658-1114); RET wild-type, read-out: HiBiT-Degradation 293T.144 RET (658-1114) 6.0 hours (DC50)) [nM] | Emax (RET (658-1114); RET wild-type, read-out: HiBiT-Degradation 293T.144 RET (658-1114) 6.0 hours (Emax)) [%]
< 50 | < 100 | +++ (<50% = +++) | ++++ (< 50 nM = ++++) | < 100 | ++++ (< 50 nM = ++++) | < 50 | < 30 |  |  |  |  | N#Cc1cnn2cc(-c3cnn(C4CCN(C(=O)CN5CCC(c6ccc(OC7CCC(=O)NC7=O)cc6F)CC5)CC4)c3)nc(-c3ccc(N4CCN(Cc5cc(F)ccn5)CC4)cc3)c12 (stereo not drawn) [Compound 38, 6-(1-(1-(2-(4-(4-((2,6-Dioxopiperidin-3-yl)oxy)-2-fluorophenyl)piperidin-1-yl)acetyl)piperidin-4-yl)-1H-pyrazol-4-yl)-4-(4-(4-((4-fluoropyridin-2-yl)methyl)piperazin-1-yl)phenyl)pyrazolo[1,5-a]pyrazine-3-carbonitrile] |  |  |  |  |  | 
< 30 | < 50 |  |  |  |  |  |  | ++++ (<50 nM = ++++) | ++++ (<50 nM = ++++) | < 30 | < 50 | N#Cc1cnn2cc(-c3cnn(C4CCN(C(=O)CC5(O)CCN(c6ccc(NC7CCC(=O)NC7=O)cc6F)CC5)CC4)c3)nc(-c3ccc(N4CCN(C(=O)c5ccon5)CC4)nc3)c12 (stereo not drawn) [Compound 116, 6-(1-(1-(2-(1-(4-((2,6-dioxopiperidin-3-yl)amino)-2-fluorophenyl)-4-hydroxypiperidin-4-yl)acetyl)piperidin-4-yl)-1H-pyrazol-4-yl)-4-(6-(4-(isoxazole-3-carbonyl)piperazin-1-yl)pyridin-3-yl)pyrazolo[1,5-a]pyrazine-3-carbonitrile] |  |  |  |  |  | 
< 30 | < 100 |  |  |  |  |  |  | ++++ (<50 nM = ++++) | ++++ (<50 nM = ++++) | < 30 | < 50 | CCC1(C(=O)Nc2ccccc2)CCN(c2ccc(-c3nc(-c4cnn(C5CCN(C(=O)CC6(O)CCN(c7ccc(NC8CCC(=O)NC8=O)cc7Cl)CC6)CC5)c4)cn4ncc(C#N)c34)cn2)CC1 (stereo not drawn) [Compound 98, 1-[5-[6-[1-[1-[2-[1-[2-chloro-4-[(2,6-dioxo-3-piperidyl)amino]phenyl]-4-hydroxy-4-piperidyl]acetyl]-4-piperidyl]pyrazol-4-yl]-3-cyano-pyrazolo[1,5-a]pyrazin-4-yl]-2-pyridyl]-4-ethyl-N-phenyl-piperidine-4-carboxamide] |  |  |  |  |  | 
< 30 | < 50 |  |  |  |  |  |  | ++++ (<50 nM = ++++) | ++++ (<50 nM = ++++) | < 30 | < 50 | CCC1(C(=O)NC(C)(C)C)CCN(c2ccc(-c3nc(-c4cnn(C5CCN(C(=O)CC6(O)CCN(c7ccc(NC8CCC(=O)NC8=O)cc7F)CC6)CC5)c4)cn4ncc(C#N)c34)cn2)CC1 (stereo not drawn) [Compound 103, N-tert-butyl-1-[5-[3-cyano-6-[1-[1-[2-[1-[4-[(2,6-dioxo-3-piperidyl)amino]-2-fluoro-phenyl]-4-hydroxy-4-piperidyl]acetyl]-4-piperidyl]pyrazol-4-yl]pyrazolo[1,5-a]pyrazin-4-yl]-2-pyridyl]-4-ethyl-piperidine-4-carboxamide] |  |  |  |  |  | 

Continued, compound first:

SMILES | Emax (RET(KD: 658-1114 G810R); [1]) [%] | DC50 (RET(KD: 658-1114 G810R); [2]) [nM] | 293T.165 RET(KD: 658-1114 G810R) 6.0 hours (Emax) (RET(KD: 658-1114 G810R); HiBiT-Degradation) | 293T.165 RET(KD: 658-1114 G810R) 6.0 hours (IP) [nM] (RET(KD: 658-1114 G810R); HiBiT-Degradation) | DC50 (RET(KD: 658-1114 G810R); [3]) [nM] | 293T.144 RET (658-1114) 6.0 hours (IP) [nM] (RET (658-1114); HiBiT-Degradation) | DC50 (RET (658-1114); [4]) [nM] | Emax (RET (658-1114); [5]) [%] | 293T.165 RET(KD: 658-1114 G810R) 6.0 hours (IP) [nM] (RET(KD: 658-1114 G810R)) | 293T.144 RET (658-1114) 6.0 hours (IP) [nM] (RET (658-1114)) | Emax (RET (658-1114); [6]) [%] | DC50 (RET (658-1114); [7]) [nM] | HiBiT-Degradation 293T.165 RET(KD: 658-1114 G810R) 6.0 hours (IP) [nM] (RET(KD: 658-1114 G810R); RET G810R) | DC50 (RET(KD: 658-1114 G810R); RET G810R, read-out: HiBiT-Degradation 293T.165 RET(KD: 658-1114 G810R) 6.0 hours (DC50)) [nM] | Emax (RET(KD: 658-1114 G810R); RET G810R, read-out: HiBiT-Degradation 293T.165 RET(KD: 658-1114 G810R) 6.0 hours (Emax)) [%] | HiBiT-Degradation 293T.144 RET (658-1114) 6.0 hours (IP) [nM] (RET (658-1114); RET wild-type) | DC50 (RET (658-1114); RET wild-type, read-out: HiBiT-Degradation 293T.144 RET (658-1114) 6.0 hours (DC50)) [nM] | Emax (RET (658-1114); RET wild-type, read-out: HiBiT-Degradation 293T.144 RET (658-1114) 6.0 hours (Emax)) [%]
COc1ccnc(CN2C3CC2CN(c2ccc(-c4cc(-c5cnn(C6CCN(C(=O)CN7CCC(c8ccc(NC9CCC(=O)NC9=O)cc8F)CC7)CC6)c5)cn5ncc(C#N)c45)cn2)C3)c1 (stereo not drawn) [Compound 71, 6-[1-[1-[2-[4-[4-[(2,6-dioxo-3-piperidyl)amino]-2-fluoro-phenyl]-1-piperidyl]acetyl]-4-piperidyl]pyrazol-4-yl]-4-[6-[6-[(4-methoxy-2-pyridyl)methyl]-3,6-diazabicyclo[3.1.1]heptan-3-yl]-3-pyridyl]pyrazolo[1,5-a]pyridine-3-carbonitrile] | < 30 | < 100 |  |  |  |  |  |  |  |  |  |  | ++++ (< 50 nM = ++++) | < 100 | < 30 | ++++ (< 50 nM = ++++) | < 50 | < 30
N#Cc1cnn2cc(-c3cnn([C@H]4CC[C@@H](N5CCN(c6ccc(N[C@@H]7CCC(=O)NC7=O)cc6F)CC5)CC4)c3)nc(-c3ccc(N4CC5CC(C4)N5C(=O)c4c(F)cccc4F)nc3)c12 (single isomer, unassigned) [Compound 172] | < 30 | < 50 |  |  |  |  |  |  | ++++ (<50 nM = ++++) | ++++ (<50 nM = ++++) | < 30 | < 50 |  |  |  |  |  | 
CCC1(C(=O)NC2CCC2)CCN(c2ccc(-c3nc(-c4cnn([C@H]5CC[C@H](N6CCN(c7c(F)cc(N[C@@H]8CCC(=O)NC8=O)cc7F)CC6)CC5)c4)cn4ncc(C#N)c34)cn2)CC1 (single isomer, unassigned) [Compound 137] | < 30 | < 50 |  |  |  |  |  |  | ++++ (<50 nM = ++++) | ++++ (<50 nM = ++++) | < 30 | < 50 |  |  |  |  |  | 
CCC1(C(=O)NC2CCC2)CCN(c2ccc(-c3nc(-c4cnn([C@H]5CC[C@H](N6CCC(c7ccc(N[C@H]8CCC(=O)NC8=O)cc7)CC6)CC5)c4)cn4ncc(C#N)c34)cn2)CC1 (single isomer, unassigned) [Compound 127] | < 30 | < 50 |  |  |  |  |  |  | ++++ (<50 nM = ++++) | ++++ (<50 nM = ++++) | < 30 | < 50 |  |  |  |  |  | 
CC(C)(C)CC(=O)N1[C@@H]2COC[C@H]1CN(c1ccc(-c3nc(-c4cnn([C@H]5CC[C@@H](N6CCN(c7ccc(NC8CCC(=O)NC8=O)cc7F)CC6)CC5)c4)cn4ncc(C#N)c34)cn1)C2 (single isomer, unassigned) [Compound 158] | < 30 | < 50 |  |  |  |  |  |  | ++++ (<50 nM = ++++) | ++++ (<50 nM = ++++) | < 30 | < 50 |  |  |  |  |  | 
CCC1(C(=O)NC2CCOCC2)CCN(c2ccc(-c3cc(-c4cnn([C@H]5CC[C@H](CCN6CCC(c7ccc(NC8CCC(=O)NC8=O)cc7F)CC6)CC5)c4)cn4ncc(C#N)c34)cn2)CC1 (stereo partly drawn) [Compound 40, 1-(5-(3-Cyano-6-(1-((trans)-4-(2-(4-(4-((2,6-dioxopiperidin-3-yl)amino)-2-fluorophenyl)piperidin-1-yl)ethyl)cyclohexyl)-1H-pyrazol-4-yl)pyrazolo[1,5-a]pyridin-4-yl)pyridin-2-yl)-4-ethyl-N-(tetrahydro-2H-pyran-4-yl)piperidine-4-carboxamide] | < 30 | < 50 | ++++ (< 30% = ++++) | ++++ (< 50 nM = ++++) | < 50 | ++++ (< 50 nM = ++++) | < 50 | < 30 |  |  |  |  |  |  |  |  |  | 
